According to ChEMBL document CHEMBL3871290, “3-Cyano-6-(5-methyl-3-pyrazoloamino) pyridines (Part 2): A dual inhibitor of Aurora kinase and tubulin polymerization” (Bioorg Med Chem Lett, 2016):
pIC50, pKi: −log10 of the molar value.

Tests used:
[1] = biological target: T1, Aurora kinase A (Homo sapiens, UniProt O14965); experiment: Inhibition of recombinant Aurora A kinase derived from human Hela cells using kemptide as substrate in presence of [c-32P]ATP
T1 sequence (O14965 whole entry): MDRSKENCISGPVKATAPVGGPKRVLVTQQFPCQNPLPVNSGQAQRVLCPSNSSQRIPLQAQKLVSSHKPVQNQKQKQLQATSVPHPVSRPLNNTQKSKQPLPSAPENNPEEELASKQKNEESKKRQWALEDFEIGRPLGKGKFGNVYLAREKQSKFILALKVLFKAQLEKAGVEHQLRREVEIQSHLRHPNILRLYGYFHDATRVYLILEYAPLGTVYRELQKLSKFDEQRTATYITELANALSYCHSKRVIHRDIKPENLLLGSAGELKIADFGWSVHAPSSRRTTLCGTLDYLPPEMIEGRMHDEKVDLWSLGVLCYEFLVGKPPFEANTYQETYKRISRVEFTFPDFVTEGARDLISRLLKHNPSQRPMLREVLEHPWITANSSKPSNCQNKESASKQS

[2] = biological target: Cytochrome P450 2C19 (Homo sapiens, UniProt P33261); experiment: Inhibition of CYP2C19 (unknown origin); format: ADME
Sequence of Cytochrome P450 2C19 (P33261 whole entry): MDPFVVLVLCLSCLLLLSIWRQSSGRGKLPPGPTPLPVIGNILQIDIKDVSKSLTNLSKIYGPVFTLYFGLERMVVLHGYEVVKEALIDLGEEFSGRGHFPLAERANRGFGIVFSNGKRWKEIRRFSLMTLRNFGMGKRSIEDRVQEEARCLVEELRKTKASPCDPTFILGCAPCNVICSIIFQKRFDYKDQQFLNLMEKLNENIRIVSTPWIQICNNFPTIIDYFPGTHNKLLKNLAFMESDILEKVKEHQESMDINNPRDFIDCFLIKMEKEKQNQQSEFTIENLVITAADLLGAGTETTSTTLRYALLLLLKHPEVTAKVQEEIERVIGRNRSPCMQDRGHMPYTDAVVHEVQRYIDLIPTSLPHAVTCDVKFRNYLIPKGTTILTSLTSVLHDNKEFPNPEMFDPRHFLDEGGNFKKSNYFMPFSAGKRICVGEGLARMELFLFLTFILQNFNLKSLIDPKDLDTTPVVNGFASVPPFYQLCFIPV

[3] = biological target: Cytochrome P450 2C9 (Homo sapiens, UniProt P11712); experiment: Inhibition of CYP2C9 (unknown origin); format: ADME
Sequence of Cytochrome P450 2C9 (P11712 whole entry): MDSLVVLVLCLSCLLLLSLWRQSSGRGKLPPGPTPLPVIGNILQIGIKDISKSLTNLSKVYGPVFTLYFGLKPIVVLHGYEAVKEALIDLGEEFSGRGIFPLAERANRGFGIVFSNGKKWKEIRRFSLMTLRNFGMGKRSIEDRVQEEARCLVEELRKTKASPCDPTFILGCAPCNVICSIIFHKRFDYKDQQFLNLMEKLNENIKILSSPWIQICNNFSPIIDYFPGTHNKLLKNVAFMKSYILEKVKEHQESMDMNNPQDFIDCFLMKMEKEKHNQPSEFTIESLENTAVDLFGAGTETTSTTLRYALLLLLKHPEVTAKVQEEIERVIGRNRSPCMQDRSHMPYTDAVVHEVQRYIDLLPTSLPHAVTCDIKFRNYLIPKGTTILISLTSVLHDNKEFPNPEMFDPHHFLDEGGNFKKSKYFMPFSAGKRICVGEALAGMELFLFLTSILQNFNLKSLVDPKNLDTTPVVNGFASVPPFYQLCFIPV

[4] = biological target: CYP2D6 (Homo sapiens, UniProt P10635); experiment: (§1) Inhibition of CYP2D6 (unknown origin); format: ADME
Sequence of CYP2D6 (P10635 whole entry): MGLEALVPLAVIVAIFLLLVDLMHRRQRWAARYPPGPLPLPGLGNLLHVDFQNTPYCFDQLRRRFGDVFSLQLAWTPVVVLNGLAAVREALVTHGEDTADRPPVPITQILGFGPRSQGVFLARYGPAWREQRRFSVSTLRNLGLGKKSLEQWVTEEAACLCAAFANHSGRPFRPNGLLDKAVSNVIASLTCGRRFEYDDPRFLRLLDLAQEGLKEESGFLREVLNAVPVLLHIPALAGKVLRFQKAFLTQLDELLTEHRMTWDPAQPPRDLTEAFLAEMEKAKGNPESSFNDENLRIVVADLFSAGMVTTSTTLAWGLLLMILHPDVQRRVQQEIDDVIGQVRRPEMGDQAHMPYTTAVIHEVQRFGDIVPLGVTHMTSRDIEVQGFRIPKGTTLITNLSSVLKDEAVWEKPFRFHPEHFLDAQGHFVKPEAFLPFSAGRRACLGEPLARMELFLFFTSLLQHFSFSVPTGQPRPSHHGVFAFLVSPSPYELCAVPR

[5] = biological target: T2, Cytochrome P450 1A2 (Homo sapiens, UniProt P05177); experiment: Inhibition of CYP1A2 (unknown origin); format: ADME
T2 sequence (P05177 whole entry): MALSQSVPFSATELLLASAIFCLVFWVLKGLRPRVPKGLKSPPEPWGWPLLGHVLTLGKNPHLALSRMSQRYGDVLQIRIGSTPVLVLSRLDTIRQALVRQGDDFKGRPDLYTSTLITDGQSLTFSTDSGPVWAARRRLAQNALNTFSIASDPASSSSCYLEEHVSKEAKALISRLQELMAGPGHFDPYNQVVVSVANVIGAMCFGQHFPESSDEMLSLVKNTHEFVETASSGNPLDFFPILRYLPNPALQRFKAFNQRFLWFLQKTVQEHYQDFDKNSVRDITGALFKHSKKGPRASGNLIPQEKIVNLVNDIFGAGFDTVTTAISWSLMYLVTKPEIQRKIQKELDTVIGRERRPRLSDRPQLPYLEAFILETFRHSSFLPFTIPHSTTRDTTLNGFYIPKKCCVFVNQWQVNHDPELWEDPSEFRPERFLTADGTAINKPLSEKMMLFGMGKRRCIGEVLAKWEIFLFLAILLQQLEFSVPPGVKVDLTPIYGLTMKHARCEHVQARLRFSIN

[6] = Cytotoxicity against human HCT116 cells assessed as cell growth inhibition; format: functional; conditions: HCT-116
[7] = biological target: Aurora kinase B (Homo sapiens, UniProt Q96GD4); experiment: Inhibition of Aurora 1 kinase (unknown origin)
Sequence of Aurora kinase B (Q96GD4 whole entry): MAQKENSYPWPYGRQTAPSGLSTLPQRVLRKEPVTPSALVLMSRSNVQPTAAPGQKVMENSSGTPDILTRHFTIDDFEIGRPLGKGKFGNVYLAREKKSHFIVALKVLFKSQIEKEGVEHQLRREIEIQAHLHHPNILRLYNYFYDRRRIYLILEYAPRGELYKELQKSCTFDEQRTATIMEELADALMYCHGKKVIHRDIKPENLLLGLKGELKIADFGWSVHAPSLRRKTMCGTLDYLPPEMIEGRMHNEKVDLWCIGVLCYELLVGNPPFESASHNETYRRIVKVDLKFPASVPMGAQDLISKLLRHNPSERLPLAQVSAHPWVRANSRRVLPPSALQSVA

[8] = biological target: Proto-oncogene tyrosine-protein kinase Src (Homo sapiens, UniProt P12931); experiment: Inhibition of cSRC (unknown origin)
Sequence of Proto-oncogene tyrosine-protein kinase Src (P12931 2-536 limits assumed): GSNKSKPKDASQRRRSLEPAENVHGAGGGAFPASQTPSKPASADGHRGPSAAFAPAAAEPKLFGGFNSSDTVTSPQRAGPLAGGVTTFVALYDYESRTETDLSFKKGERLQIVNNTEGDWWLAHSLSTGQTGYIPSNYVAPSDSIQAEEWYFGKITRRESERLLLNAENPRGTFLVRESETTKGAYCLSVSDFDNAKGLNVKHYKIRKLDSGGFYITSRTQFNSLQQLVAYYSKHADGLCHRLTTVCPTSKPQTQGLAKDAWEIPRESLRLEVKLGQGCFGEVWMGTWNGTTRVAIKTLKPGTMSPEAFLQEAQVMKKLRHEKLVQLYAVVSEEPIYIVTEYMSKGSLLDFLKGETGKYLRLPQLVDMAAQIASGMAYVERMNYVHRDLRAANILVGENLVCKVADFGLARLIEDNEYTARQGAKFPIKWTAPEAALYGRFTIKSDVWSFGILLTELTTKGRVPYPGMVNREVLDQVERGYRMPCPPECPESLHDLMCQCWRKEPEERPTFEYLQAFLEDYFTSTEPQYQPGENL

[9] = biological target: Fibroblast growth factor receptor 1 (Homo sapiens, UniProt P11362); experiment: Inhibition of FGFR1 (unknown origin)
Sequence of Fibroblast growth factor receptor 1 (P11362 whole entry): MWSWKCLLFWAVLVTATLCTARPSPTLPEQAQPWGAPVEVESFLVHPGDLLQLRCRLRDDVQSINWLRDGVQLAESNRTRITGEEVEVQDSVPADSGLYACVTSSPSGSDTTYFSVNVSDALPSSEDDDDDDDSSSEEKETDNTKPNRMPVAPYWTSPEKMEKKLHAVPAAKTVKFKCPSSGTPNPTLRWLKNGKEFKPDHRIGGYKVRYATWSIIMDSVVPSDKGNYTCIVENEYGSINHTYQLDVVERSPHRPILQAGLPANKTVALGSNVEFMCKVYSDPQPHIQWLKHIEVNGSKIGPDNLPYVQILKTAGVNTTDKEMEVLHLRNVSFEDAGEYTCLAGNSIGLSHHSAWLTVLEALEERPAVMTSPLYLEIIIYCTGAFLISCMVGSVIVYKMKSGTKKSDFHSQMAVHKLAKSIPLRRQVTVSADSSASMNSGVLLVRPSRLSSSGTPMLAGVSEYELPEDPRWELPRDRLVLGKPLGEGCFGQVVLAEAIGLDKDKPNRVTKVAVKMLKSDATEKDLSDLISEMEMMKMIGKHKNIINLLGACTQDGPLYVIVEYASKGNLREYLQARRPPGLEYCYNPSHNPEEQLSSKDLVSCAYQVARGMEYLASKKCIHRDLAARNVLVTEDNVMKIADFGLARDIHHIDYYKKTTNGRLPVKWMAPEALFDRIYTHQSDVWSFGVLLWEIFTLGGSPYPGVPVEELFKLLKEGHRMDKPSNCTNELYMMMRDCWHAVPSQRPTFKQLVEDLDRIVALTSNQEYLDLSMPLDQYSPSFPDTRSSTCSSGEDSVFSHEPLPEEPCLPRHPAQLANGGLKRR

[10] = biological target: Tyrosine-protein kinase Fyn (Homo sapiens, UniProt P06241); experiment: Inhibition of FYN (unknown origin)
Sequence of Tyrosine-protein kinase Fyn (P06241 whole entry): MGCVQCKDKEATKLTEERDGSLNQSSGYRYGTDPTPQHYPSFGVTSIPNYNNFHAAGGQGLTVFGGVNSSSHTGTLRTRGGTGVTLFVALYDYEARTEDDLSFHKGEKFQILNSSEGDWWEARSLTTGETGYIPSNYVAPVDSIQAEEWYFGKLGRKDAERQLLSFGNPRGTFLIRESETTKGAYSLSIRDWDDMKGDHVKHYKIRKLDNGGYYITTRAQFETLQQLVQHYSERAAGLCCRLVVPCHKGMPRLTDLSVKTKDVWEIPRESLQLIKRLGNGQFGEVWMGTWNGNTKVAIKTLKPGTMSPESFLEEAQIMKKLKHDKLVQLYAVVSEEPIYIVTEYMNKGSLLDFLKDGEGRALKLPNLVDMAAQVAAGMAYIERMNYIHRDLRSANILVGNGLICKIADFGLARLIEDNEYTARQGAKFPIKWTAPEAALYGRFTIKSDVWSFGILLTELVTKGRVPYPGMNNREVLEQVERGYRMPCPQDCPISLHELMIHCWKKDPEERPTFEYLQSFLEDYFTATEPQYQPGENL

[11] = biological target: Vascular endothelial growth factor receptor 2 (Homo sapiens, UniProt P35968); experiment: Inhibition of KDR (unknown origin)
[12] = biological target: Tyrosine-protein kinase Lyn (Homo sapiens, UniProt P07948); experiment: Inhibition of LYN (unknown origin)
Sequence of Tyrosine-protein kinase Lyn (P07948 whole entry): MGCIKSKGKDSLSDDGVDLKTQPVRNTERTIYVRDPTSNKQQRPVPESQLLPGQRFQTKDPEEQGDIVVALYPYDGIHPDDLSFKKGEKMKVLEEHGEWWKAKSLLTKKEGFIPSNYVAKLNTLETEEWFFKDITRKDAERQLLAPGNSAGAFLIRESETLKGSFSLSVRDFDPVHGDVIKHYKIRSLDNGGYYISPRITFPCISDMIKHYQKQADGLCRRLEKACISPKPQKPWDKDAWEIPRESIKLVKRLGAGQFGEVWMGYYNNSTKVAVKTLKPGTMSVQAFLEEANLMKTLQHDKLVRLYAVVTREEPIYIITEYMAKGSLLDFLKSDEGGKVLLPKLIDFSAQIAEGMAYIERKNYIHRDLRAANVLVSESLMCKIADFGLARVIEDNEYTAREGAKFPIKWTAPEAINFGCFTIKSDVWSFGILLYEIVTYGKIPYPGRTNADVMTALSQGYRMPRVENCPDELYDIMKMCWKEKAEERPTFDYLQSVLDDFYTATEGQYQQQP

[13] = biological target: Tyrosine-protein kinase Yes (Homo sapiens, UniProt P07947); experiment: Inhibition of YES (unknown origin)
[14] = Antitumor activity against human HCT116 cells xenografted subcutaneously in mouse assessed as tumor growth inhibition at 30 mg/kg, po qd after 14 days; format: functional; conditions: HCT-116, 336 h, read-out: TGI
[15] = AUC in rat at 30 mg/kg, po; format: ADME, organism-based; conditions: in vivo
[16] = Tmax in rat at 30 mg/kg, po; format: ADME, organism-based; conditions: in vivo
[17] = Cmax in rat at 30 mg/kg, po; format: ADME, organism-based; design: dose 30 mg/kg, route oral; conditions: in vivo
[18] = biological target: Cytochrome P450 3A4 (Homo sapiens, UniProt P08684); experiment: Inhibition of CYP3A4 (unknown origin); format: ADME
Sequence of Cytochrome P450 3A4 (P08684 whole entry): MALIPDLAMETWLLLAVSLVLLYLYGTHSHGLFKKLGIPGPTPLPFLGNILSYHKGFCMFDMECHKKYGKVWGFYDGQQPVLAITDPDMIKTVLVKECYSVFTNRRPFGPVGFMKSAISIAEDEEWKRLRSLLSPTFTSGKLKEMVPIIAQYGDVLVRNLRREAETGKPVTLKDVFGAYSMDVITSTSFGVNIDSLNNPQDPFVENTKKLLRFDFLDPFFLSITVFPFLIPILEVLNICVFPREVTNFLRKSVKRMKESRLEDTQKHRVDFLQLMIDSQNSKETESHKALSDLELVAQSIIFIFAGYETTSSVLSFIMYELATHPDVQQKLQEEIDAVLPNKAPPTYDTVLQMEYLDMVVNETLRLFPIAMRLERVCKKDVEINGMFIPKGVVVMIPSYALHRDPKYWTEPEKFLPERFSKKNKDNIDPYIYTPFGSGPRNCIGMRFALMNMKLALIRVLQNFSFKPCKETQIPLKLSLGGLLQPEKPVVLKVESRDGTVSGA

[19] = biological target: Cytochrome P450 2D6 (Homo sapiens, UniProt P10635); experiment: as §1; format: ADME
Sequence of Cytochrome P450 2D6 (P10635 whole entry): as the sequence (P10635 whole entry) above

[20] = Antitumor activity against human PC3 cells xenografted subcutaneously in mouse assessed as tumor growth inhibition at 30 mg/kg, po qd for 14 days; format: functional; conditions: PC-3, 336 h, read-out: TGI
[21] = Antitumor activity against mouse CT26 cells allografted subcutaneously in mouse assessed as tumor growth inhibition at 30 mg/kg, po qd for 14 days; format: functional; conditions: CT26, 336 h, read-out: TGI
[22] = Antitumor activity against human HCT116 cells xenografted subcutaneously in mouse assessed as tumor growth inhibition at 40 mg/kg, po qd administered on day 1, 5, 9, 13, 16 relative to control; format: functional; conditions: HCT-116, read-out: TGI
[23] = Antitumor activity against human HCT116 cells xenografted subcutaneously in mouse assessed as tumor growth inhibition at 20 mg/kg, po qd administered on day 1, 5, 9, 13, 16 relative to control; format: functional; conditions: HCT-116, read-out: TGI
[24] = system: Mus musculus; experiment: Toxicity in mouse allografted subcutaneously with mouse CT26 cells assessed as mortality at 30 mg/kg, ip qd for 14 days; format: organism-based; conditions: in vivo, 336 h
[25] = Antitumor activity against mouse CT26 cells allografted subcutaneously in mouse assessed as tumor growth inhibition at 25 mg/kg, ip qd for 14 days; format: functional; conditions: CT26, 336 h, read-out: TGI

SMILES	pKi [1]	pIC50 [2]	pIC50 [3]	pIC50 [5]	GI50 [6] [nM]	pIC50 [18]	pIC50 [19]	other results
Cc1cc(Nc2cc(C)c(C#N)c(N[C@@H](C)CCCC(C)(C)O)n2)n[nH]1	> 9.00	> 6.40	5.77	4.26	52			pIC50 [4]: > 4.30
Cc1ccc(OCCNc2nc(Nc3cc(C)[nH]n3)cc(C)c2C#N)cn1	8.40	5.35	5.31	5.70	1	5.35	< 4.30	pKi [7]: 8.00; pKi [8]: 6.32; pKi [9]: 7.10; pKi [10]: 7.10; pKi [11]: 6.23; pKi [12]: 6.31; pKi [13]: 7.10; inhibition in vivo at 30 mg/kg [14]: 81.9%; AUC [15]: 14.6 µg/mL; Tmax [16]: 15 min; Cmax [17]: 19600 ng/mL; inhibition in vivo at 30 mg/kg [20]: 85%; inhibition in vivo at 30 mg/kg [21]: 47.8%; inhibition in vivo at 40 mg/kg [22]: 71%; inhibition in vivo at 20 mg/kg [23]: 44%
Cc1cc(Nc2cc(C)c(C#N)c(NCCOc3ccccc3F)n2)n[nH]1	> 9.00			> 6.40	26	5.80	5.11	
Cc1cc(Nc2cc(C)c(C#N)c(NCCOc3cccnc3)n2)n[nH]1				6.15	2	> 6.40	5.00	
Cc1cc(Nc2cc(C)c(C#N)c(NCCOc3ccncc3)n2)n[nH]1	7.54			> 6.40	120	> 6.40	5.70	
Cc1cc(Nc2cc(C)c(C#N)c(NCCOc3ccccn3)n2)n[nH]1				> 6.40	67	5.14	4.54	
CCc1ccc(OCCNc2nc(Nc3cc(C)[nH]n3)cc(C)c2C#N)cn1	8.22	6.10	5.85	5.85	66	5.80	4.34	
Cc1cc(Nc2cc(C)c(C#N)c(NCCOc3cccnc3C)n2)n[nH]1		6.05	5.62	5.26	4	5.74	< 4.30	
Cc1cc(Nc2cc(C)c(C#N)c(NCCOc3ccccc3)n2)n[nH]1	8.70			> 6.40	11	5.85	5.14	
Cc1ccc(OCCNc2nc(Nc3cc(C)[nH]n3)cc(C)c2C#N)c(C)n1		5.77	5.46	< 4.30	37	5.77	< 4.30	
Cc1cc(Nc2cc(C)c(C#N)c(NCCOc3ccccc3Cl)n2)n[nH]1		> 6.40	> 6.70	6.30	9	5.92	5.19	
CC(=O)O[C@H]1C(=O)[C@@]2(C)[C@H]([C@H](OC(=O)c3ccccc3)[C@]3(O)C[C@H](OC(=O)[C@H](O)[C@@H](NC(=O)c4ccccc4)c4ccccc4)C(C)=C1C3(C)C)[C@]1(OC(C)=O)CO[C@@H]1C[C@@H]2O [PACLITAXEL]								Activity [24]: Toxic; inhibition in vivo at 25 mg/kg [25]: 24.8%
